In US20250034170A1, “SMALL MOLECULE MODULATORS OF GLUCOCEREBROSIDASE ACTIVITY AND USES THEREOF” (Vanqua Bio, Inc., priority 2021, published 2025):

Each molecule was assayed against T1, GCase (Homo sapiens, UniProt P04062) (assay: activation of GCase in a live cell PFB assay in HELA cells). Details: activation of GCase, EC50 ranges.
T1 construct: endogenous in cells; host or cells: HeLa cells
T1 sequence (P04062 40-536): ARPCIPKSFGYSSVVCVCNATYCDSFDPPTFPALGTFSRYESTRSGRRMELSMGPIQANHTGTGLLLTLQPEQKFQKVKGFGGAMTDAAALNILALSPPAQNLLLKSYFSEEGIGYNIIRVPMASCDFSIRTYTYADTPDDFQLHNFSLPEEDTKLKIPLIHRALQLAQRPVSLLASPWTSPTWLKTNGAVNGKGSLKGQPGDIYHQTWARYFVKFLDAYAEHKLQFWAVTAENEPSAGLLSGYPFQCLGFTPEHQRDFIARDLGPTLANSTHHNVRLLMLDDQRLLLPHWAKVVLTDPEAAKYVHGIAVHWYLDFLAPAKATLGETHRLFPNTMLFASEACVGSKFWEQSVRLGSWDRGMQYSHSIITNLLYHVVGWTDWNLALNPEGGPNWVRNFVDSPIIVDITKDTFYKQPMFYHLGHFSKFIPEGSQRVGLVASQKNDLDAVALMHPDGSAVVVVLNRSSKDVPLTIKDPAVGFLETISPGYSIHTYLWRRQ
Type: cell-based
Protocol: Exemplary compounds were evaluated for activation of GCase in a live cell PFB assay in HELA cells (essentially as described in Ysselstein et al., “LRRK2 kinase activity regulates lysosomal glucocerebrosidase in neurons derived from Parkinson's disease patients” Nature Communications (2019) 10:5570). […] EC50 ranges: A: <10 μM; B: >10-50 μM; C: >50-100 μM; D: >100 μM.

Row | SMILES | EC50
1 | O=C(c1ccc2cc[nH]c2c1)N1CCCC2(CC(Oc3cnccc3C(F)(F)F)C2)C1 (centres unmarked) [Compound 40, 6-(1H-indole-6-carbonyl)-2-{[4-(trifluoromethyl)pyridin-3-yl]oxy}-6-azaspiro[3.5]nonane] | 50 to 100 µM
2 | FC(F)Cn1ncc2ncc(N3CCCC4(CN(c5ccc(C(F)(F)F)cn5)C4)C3)nc21 [Compound 41, 6-[1-(2,2-difluoroethyl)-1H-pyrazolo[3,4-b]pyrazin-6-yl]-2-[5-(trifluoromethyl)pyridin-2-yl]-2,6-diazaspiro[3.5]nonane] | 50 to 100 µM
3 | O=C(Cc1csc(-c2ccccc2)n1)N1CCCC2(C1)CN(c1ccccc1)C2 [Compound 57, 2-(2-phenyl-1,3-thiazol-4-yl)-1-{2-phenyl-2,6-diazaspiro[3.5]nonan-6-yl}ethan-1-one] | 10 to 50 µM
4 | O=C(Cc1csc(-c2ccccc2)n1)N1CC2(CCCN(c3ccccc3)C2)C1 [Compound 58, 2-(2-phenyl-1,3-thiazol-4-yl)-1-{6-phenyl-2,6-diazaspiro[3.5]nonan-2-yl}ethan-1-one] | 10 to 50 µM
5 | FC(F)Cn1ncc2ncc(N3CCC4(CC3)CN(c3cncc(C(F)(F)F)c3)C4)nc21 [Compound 69, 7-[1-(2,2-difluoroethyl)-1H-pyrazolo[3,4-b]pyrazin-6-yl]-2-[5-(trifluoromethyl)pyridin-3-yl]-2,7-diazaspiro[3.5]nonane] | 10 to 50 µM
6 | O=C1N(c2cc(C(F)(F)F)ccn2)C(=O)C2(CCN(c3cnc4cnn(CC(F)F)c4n3)CC2)N1Cc1ccccc1 [Compound 70, 1-benzyl-8-(1-(2,2-difluoroethyl)-1H-pyrazolo[3,4-b]pyrazin-6-yl)-3-(4-(trifluoromethyl)pyridin-2-yl)-1,3,8-triazaspiro[4.5]decane-2,4-dione] | < 10 µM
7 | CCC1C(=O)N(c2cc(C(F)(F)F)ccn2)CC12CCN(c1cnc3cnn(CC(F)F)c3n1)CC2 (centres unmarked) [Compound 75, 8-(1-(2,2-difluoroethyl)-1H-pyrazolo[3,4-b]pyrazin-6-yl)-4-ethyl-2-(4-(trifluoromethyl)pyridin-2-yl)-2,8-diazaspiro[4.5]decan-3-one] | < 10 µM
8 | FC(F)Cn1ncc2ncc(N3CCC4(CC3)CN(c3cnccc3C(F)(F)F)C4)nc21 [Compound 76, 7-[1-(2,2-difluoroethyl)-1H-pyrazolo[3,4-b]pyrazin-6-yl]-2-[4-(trifluoromethyl)pyridin-3-yl]-2,7-diazaspiro[3.5]nonane] | < 10 µM
9 | FC(F)Cn1ncc2ncc(N3CCC4(CC3)CN(c3ncccc3C(F)(F)F)C4)nc21 [Compound 79, 7-[1-(2,2-difluoroethyl)-1H-pyrazolo[3,4-b]pyrazin-6-yl]-2-[3-(trifluoromethyl)pyridin-2-yl]-2,7-diazaspiro[3.5]nonane] | < 10 µM
10 | FC(F)Cn1ncc2ncc(N3CCC4(CCC(Oc5cccnc5C(F)(F)F)C4)CC3)nc21 (centres unmarked) [Compound 86, 8-[1-(2,2-difluoroethyl)-1H-pyrazolo[3,4-b]pyrazin-6-yl]-2-{[2-(trifluoromethyl)pyridin-3-yl]oxy}-8-azaspiro[4.5]decane] | < 10 µM
11 | FC(F)Cn1ncc2ncc(N3CCC4(CCC4Oc4cccnc4C(F)(F)F)CC3)nc21 (centres unmarked) [Compound 87, 7-[1-(2,2-difluoroethyl)-1H-pyrazolo[3,4-b]pyrazin-6-yl]-1-{[2-(trifluoromethyl)pyridin-3-yl]oxy}-7-azaspiro[3.5]nonane] | < 10 µM
12 | FC(F)Cn1ncc2ncc(N3CCC4(CC3)CC(Oc3cccnc3C(F)(F)F)C4)nc21 [Compound 88, 7-[1-(2,2-difluoroethyl)-1H-pyrazolo[3,4-b]pyrazin-6-yl]-2-{[2-(trifluoromethyl)pyridin-3-yl]oxy}-7-azaspiro[3.5]nonane] | < 10 µM
13 | FC(F)Cn1ncc2ncc(N3CCC4(CC3)CC(COc3cccnc3C(F)(F)F)C4)nc21 [Compound 89, 7-[1-(2,2-difluoroethyl)-1H-pyrazolo[3,4-b]pyrazin-6-yl]-2-({[2-(trifluoromethyl)pyridin-3-yl]oxy}methyl)-7-azaspiro[3.5]nonane] | 10 to 50 µM
14 | O=C1CC2(CCCN(c3cnc4cnn(CC(F)F)c4n3)C2)CN1c1cc(C(F)(F)F)ccn1 (centres unmarked) [Compound 97, 7-[1-(2,2-difluoroethyl)-1H-pyrazolo[3,4-b]pyrazin-6-yl]-2-[4-(trifluoromethyl)pyridin-2-yl]-2,7-diazaspiro[4.5]decan-3-one] | 50 to 100 µM

Now from value to molecule:

Row | EC50 | SMILES
15 | < 10 µM | FC(F)Cn1ncc2ncc(N3CCC4(CC3)CN(c3ccc(C(F)(F)F)nc3)C4)nc21 [Compound 66, 7-[1-(2,2-difluoroethyl)-1H-pyrazolo[3,4-b]pyrazin-6-yl]-2-[6-(trifluoromethyl)pyridin-3-yl]-2,7-diazaspiro[3.5]nonane]
16 | < 10 µM | FC(F)Cn1ncc2ncc(N3CCC4(CC3)CN(c3ccnc(C(F)(F)F)c3)C4)nc21 [Compound 68, 7-[1-(2,2-difluoroethyl)-1H-pyrazolo[3,4-b]pyrazin-6-yl]-2-[2-(trifluoromethyl)pyridin-4-yl]-2,7-diazaspiro[3.5]nonane]
17 | < 10 µM | CC1(C)C(=O)N(c2cc(C(F)(F)F)ccn2)CC12CCN(c1cnc3cnn(CC(F)F)c3n1)CC2 [Compound 73, 8-(1-(2,2-difluoroethyl)-1H-pyrazolo[3,4-b]pyrazin-6-yl)-4,4-dimethyl-2-(4-(trifluoromethyl)pyridin-2-yl)-2,8-diazaspiro[4.5]decan-3-one]
18 | < 10 µM | FC(F)Cn1ncc2ncc(N3CCC4(CC3)CN(c3cccc(C(F)(F)F)n3)C4)nc21 [Compound 77, 7-[1-(2,2-difluoroethyl)-1H-pyrazolo[3,4-b]pyrazin-6-yl]-2-[6-(trifluoromethyl)pyridin-2-yl]-2,7-diazaspiro[3.5]nonane]
19 | 10 to 50 µM | FC(F)Cn1ncc2ncc(N3CCC4(CC3)CN(c3ccc(C(F)(F)F)cn3)C4)nc21 [Compound 78, 7-[1-(2,2-difluoroethyl)-1H-pyrazolo[3,4-b]pyrazin-6-yl]-2-[5-(trifluoromethyl)pyridin-2-yl]-2,7-diazaspiro[3.5]nonane]
20 | 10 to 50 µM | FC(F)Cn1ncc2ncc(N3CCC4(CCCC4COc4cccc(C(F)(F)F)n4)CC3)nc21 (centres unmarked) [Compound 80, 8-[1-(2,2-difluoroethyl)-1H-pyrazolo[3,4-b]pyrazin-6-yl]-1-({[6-(trifluoromethyl)pyridin-2-yl]oxy}methyl)-8-azaspiro[4.5]decane]
21 | 10 to 50 µM | FC(F)Cn1ncc2ncc(N3CCC4(CCC(Oc5cccc(C(F)(F)F)n5)C4)CC3)nc21 (centres unmarked) [Compound 81, 8-[1-(2,2-difluoroethyl)-1H-pyrazolo[3,4-b]pyrazin-6-yl]-2-{[6-(trifluoromethyl)pyridin-2-yl]oxy}-8-azaspiro[4.5]decane]
22 | 10 to 50 µM | FC(F)Cn1ncc2ncc(N3CCC4(CCC4COc4cccc(C(F)(F)F)n4)CC3)nc21 (centres unmarked) [Compound 82, 7-[1-(2,2-difluoroethyl)-1H-pyrazolo[3,4-b]pyrazin-6-yl]-1-({[6-(trifluoromethyl)pyridin-2-yl]oxy}methyl)-7-azaspiro[3.5]nonane]
23 | 10 to 50 µM | FC(F)Cn1ncc2ncc(N3CCC4(CCC4Oc4cccc(C(F)(F)F)n4)CC3)nc21 (centres unmarked) [Compound 83, 7-[1-(2,2-difluoroethyl)-1H-pyrazolo[3,4-b]pyrazin-6-yl]-1-{[6-(trifluoromethyl)pyridin-2-yl]oxy}-7-azaspiro[3.5]nonane]
24 | 10 to 50 µM | FC(F)Cn1ncc2ncc(N3CCC4(CC3)CC(Oc3cccc(C(F)(F)F)n3)C4)nc21 [Compound 84, 7-[1-(2,2-difluoroethyl)-1H-pyrazolo[3,4-b]pyrazin-6-yl]-2-{[6-(trifluoromethyl)pyridin-2-yl]oxy}-7-azaspiro[3.5]nonane]
25 | 10 to 50 µM | FC(F)Cn1ncc2ncc(N3CCC4(CC3)CC(COc3cccc(C(F)(F)F)n3)C4)nc21 [Compound 85, 7-[1-(2,2-difluoroethyl)-1H-pyrazolo[3,4-b]pyrazin-6-yl]-2-({[6-(trifluoromethyl)pyridin-2-yl]oxy}methyl)-7-azaspiro[3.5]nonane]
26 | 10 to 50 µM | O=C1CC2(CCCN(c3cnc4cnn(CC(F)F)c4n3)C2)CN1c1cccc(C(F)(F)F)n1 (centres unmarked) [Compound 95, 7-[1-(2,2-difluoroethyl)-1H-pyrazolo[3,4-b]pyrazin-6-yl]-2-[6-(trifluoromethyl)pyridin-2-yl]-2,7-diazaspiro[4.5]decan-3-one]
27 | 10 to 50 µM | O=C1N(c2cccc(C(F)(F)F)n2)CCC12CCCN(c1cnc3cnn(CC(F)F)c3n1)C2 (centres unmarked) [Compound 96, 7-[1-(2,2-difluoroethyl)-1H-pyrazolo[3,4-b]pyrazin-6-yl]-2-[6-(trifluoromethyl)pyridin-2-yl]-2,7-diazaspiro[4.5]decan-1-one]
28 | 50 to 100 µM | O=C1N(c2cc(C(F)(F)F)ccn2)CCC12CCCN(c1cnc3cnn(CC(F)F)c3n1)C2 (centres unmarked) [Compound 98, 7-[1-(2,2-difluoroethyl)-1H-pyrazolo[3,4-b]pyrazin-6-yl]-2-[4-(trifluoromethyl)pyridin-2-yl]-2,7-diazaspiro[4.5]decan-1-one]
29 | < 10 µM | O=C1N(c2cnc3cnn(CC(F)F)c3n2)CCC12CCN(c1cccc(C(F)(F)F)n1)CC2 [Compound 99, 2-[1-(2,2-difluoroethyl)-1H-pyrazolo[3,4-b]pyrazin-6-yl]-8-[6-(trifluoromethyl)pyridin-2-yl]-2,8-diazaspiro[4.5]decan-1-one]
